Measured values published in PMC6467771 (Journal of medicinal chemistry, 2019).
≈ marks a conversion by molar mass, not a printed value. Like-named read-outs stand apart in the source and are kept apart here.

Key:
FmlH = FmlH (Escherichia coli, UniProt Q1RBS0); type: binding, Escherichia coli (UPEC, CFT073)
Rat pharmacokinetics = type: in vivo; conditions: for renal clearance to the urine: after IV and PO administration
[1] = tested on: uropathogenic Escherichia coli (UPEC); conditions: cited from earlier work
[2] = Kinetic aqueous solubility; type: physicochemical; conditions: pH 7.4; for solubility kinetic: aqueous solution
[3] = Stability in simulated intestinal fluid; type: in vitro ADME
Mouse plasma stability = type: in vitro ADME
[4] = Mouse liver microsome stability; type: in vitro ADME
[5] = Stability in simulated gastric fluid; type: in vitro ADME
[6] = IC50, ELISA, FmlH binding to desialylated bovine submaxillary mucin, average of four or more replicates

CC(=O)NC1[C@H](Oc2cccc(C(F)(F)F)c2-c2cccc(NS(C)(=O)=O)c2)O[C@H](CO)[C@H](O)[C@@H]1O (stereo in doubt) [Compound 90, N-((2S,3S,4R,5R)-4,5-Dihydroxy-6-(hydroxymethyl)-2-((3’-(meth-ylsulfonamido)-6-(trifluoromethyl)-[1,1’-biphenyl]-2-yl)oxy)-tetrahydro-2H-pyran-3-yl)acetamide]
fold greater potency / improvement in activity relative to 1 (FmlH; ELISA IC50 ratio): ~20 fold | IC50 (FmlH; [6]): 34 nM | renal clearance to the urine (Rat pharmacokinetics): low renal clearance to the urine | clearance (Rat pharmacokinetics; plasma, iv, 3 mg/kg): 57 mL/min/kg

CC(=O)N[C@H]1[C@H](Oc2ccccc2-c2cccc(C(=O)O)c2)O[C@H](CO)[C@H](O)[C@@H]1O [Compound 1]
IC50 (FmlH; [6]): 640 nM | effect on bacterial titers in bladder and kidney ([1]; co-administration with 4Z269, a mannoside inhibitor of FimH): further reduced bacterial titers in both the bladder and kidney | effect on bladder and kidney CFUs ([1]; treatment model of chronic cystitis): significantly reduce bladder and kidney CFUs

CC(=O)N[C@H]1[C@H](Oc2cccc(F)c2-c2cccc(NS(C)(=O)=O)c2)O[C@H](CO)[C@H](O)[C@@H]1O [Compound 80, N-((2S,3R,4R,5R,6R)-2-((6-Fluoro-3’-(methylsulfonamido)-[1,1’- biphenyl]-2-yl)oxy)-4,5-dihydroxy-6-(hydroxymethyl)tetrahydro-2H-pyran-3-yl)acetamide]
IC50 (FmlH; [6]): 88 nM | solubility kinetic [2]: 197 µM (≈ 95.4 µg/mL)

CC(=O)N[C@H]1[C@H](Oc2cccc(C(=O)OCc3ccccc3)c2-c2cccc(NS(C)(=O)=O)c2)O[C@H](CO)[C@H](O)[C@@H]1O [Compound 81, Benzyl6-(((2S,3S,4R,5R)-3-Acetamido-4,5-dihydroxy-6-(hydroxymethyl)tetrahydro-2H-pyran-2-yl)oxy)-3’-(methylsulfona-mido)-[1,1’-biphenyl]-2-carboxylate]
IC50 (FmlH; [6]): 89 nM

CC(=O)N[C@H]1[C@H](Oc2cccc(C(=O)O)c2-c2cccc(NS(C)(=O)=O)c2)O[C@H](CO)[C@H](O)[C@@H]1O [Compound 82, 6-(((2S,3S,4R,5R)-3-Acetamido-4,5-dihydroxy-6 (hydroxymethyl)tetrahydro-2H-pyran-2-yl)oxy)-3 ‘-(methylsulfona-mido)-[1,1’-biphenyl]-2-carboxylic Acid]
IC50 (FmlH; [6]): 66 nM

COc1cccc(O[C@@H]2O[C@H](CO)[C@H](O)[C@H](O)[C@H]2NC(C)=O)c1-c1cccc(NS(C)(=O)=O)c1 [Compound 83, N-((2S,3S,4R,5R)-4,5-Dihydroxy-6-(hydroxymethyl)-2-((6-me-thoxy-3 ‘-(methylsulfonamido)-[1,1 ‘-biphenyl]-2-yl)oxy)tetrahydro-2H-pyran-3-yl)acetamide]
IC50 (FmlH; [6]): 92 nM

CC(=O)N[C@H]1[C@H](Oc2cccc(C)c2-c2cccc(NS(C)(=O)=O)c2)O[C@H](CO)[C@H](O)[C@@H]1O [Compound 84, N-((2S,3R/4R/5R,6R)-4/5-Dihydroxy-6-(hydroxymethyl)-2-((6-methyl-3’-(methylsulfonamido)-[1,1’-biphenyl]-2-yl)oxy)-tetrahydro-2H-pyran-3-yl)acetamide]
IC50 (FmlH; [6]): 62 nM | IC50 (FmlH; IC50 expressed as a concentration, converted from IC50 of 120 nM): 120 nM | solubility kinetic [2]: 195 µM (≈ 93.7 µg/mL)

CC(=O)N[C@H]1[C@H](Oc2ccc3ccccc3c2-c2cccc(NS(C)(=O)=O)c2)O[C@H](CO)[C@H](O)[C@@H]1O [Compound 85, N-((2S,3R,4R,5R,6R)-4,5-Dihydroxy-6-(hydroxymethyl)-2-((1-(3 (methylsulfonamido)phenyl)naphthalen-2-yl)oxy)tetrahydro-2H-pyran-3-yl)acetamide]
IC50 (FmlH; [6]): 81 nM

CC(=O)N[C@H]1[C@H](Oc2cccc(C)c2-c2cccc(NS(=O)(=O)C3CC3)c2)O[C@H](CO)[C@H](O)[C@@H]1O [Compound 86, N-((2S,3R,4R,5R,6R)-2-((3’-(Cyclopropanesulfonamido)-6-meth-yl-[1,1’-biphenyl]-2-yl)oxy)-4,5-dihydroxy-6-(hydroxymethyl)-tetrahydro-2H-pyran-3-yl)acetamide]
IC50 (FmlH; [6]): 51 nM | renal clearance to the urine (Rat pharmacokinetics): low renal clearance to the urine | solubility kinetic [2]: 196 µM (≈ 99.3 µg/mL)

Cc1cccc(O[C@@H]2O[C@H](CO)[C@H](O)[C@H](O)[C@H]2NS(C)(=O)=O)c1-c1cccc(NS(C)(=O)=O)c1 [Compound 89, N-((2S,3R,4R,5R,6R)-4,5-Dihydroxy-6-(hydroxymethyl)-2-((6-methyl-3’-(methylsulfonamido)-[1,1’-biphenyl]-2-yl)oxy)-tetrahydro-2H-pyran-3-yl)methanesulfonamide]
IC50 (FmlH; [6]): 3500 nM

N-((2S,3S,4R,5R)-4/5-Dihydro xy-6-(hydroxymethyl)-2-((6-methyl-3’-(methylsulfonamido)-[1,1’-biphenyl]-2-yl)oxy)tetrahydro-2H-pyran-3-yl)-2,2,2-trifluoroacetimidic Acid [Compound 88]
IC50 (FmlH; ELISA, FmlH binding to desialylated bovine submaxillary mucin, average of four or more replicates): 48 nM | SIF (% remaining @ 2 h) [3]: 89% | mouse plasma (% remaining @ 2 h) (Mouse plasma stability): 89% | mouse liver microsomes (t1/2 min) [4]: >2.42 h | SGF (% remaining @ 6 h) [5]: 91% | kinetic solubility ([2]; aqueous): 164 µM
